Experimental data reported in ChEMBL document CHEMBL4400557, “The potential of click reactions for the synthesis of bioactive triterpenes” (Bioorg Med Chem Lett, 2019).
Blank lines part the entries; values can stand above or below the compound they belong to.

What was measured:
[1] = tested on: Human immunodeficiency virus 1; assay: Antiviral activity against HIV-1 NL4-3; format: functional, organism-based; settings: Human immunodeficiency virus 1, NL4-3
HT-1080 = assay: Antiproliferative activity against human HT1080 cells after 72 hrs by MTT assay; format: functional, cell-based; settings: HT-1080, 72 h
[2] = Antiproliferative activity against human A375-S2 cells after 72 hrs by MTT assay; format: functional, cell-based; settings: A375-S2, 72 h
KB = assay: Antiproliferative activity against human KB cells; format: functional, cell-based
[3] = Inhibition of glycogen phosphorylase (unknown origin); parameters: species or system Homo sapiens
HL-60 = assay: Antiproliferative activity against human HL60 cells by MTT assay; format: functional, cell-based
AGS = assay: Antiproliferative activity against human AGS cells after 3 days by MTT assay; format: functional, cell-based; settings: 72 h
MDA-MB-231 = assay: Antiproliferative activity against human MDA-MB-231 cells by SRB assay; format: functional
[4] = Inhibition of rabbit muscle glycogen phosphorylase; parameters: species or system Oryctolagus cuniculus
CCRF-CEM = assay: Cytotoxicity in human CCRF-CEM cells incubated for 72 hrs by SRB assay; format: functional, cell-based

SMILES: C=C(C)[C@@H]1CC[C@]2(C(=O)O[Si](c3ccccc3)(c3ccccc3)C(C)(C)C)CC[C@]3(C)[C@H](CC[C@@H]4[C@@]5(C)CC[C@H](O)C(C)(C)[C@@H]5CC[C@]43C)[C@@H]12
IC50 [1]: 0.19 µM

SMILES: C=C(C)[C@@H]1CC[C@]2(C(=O)NCc3cn(C4CC(n5cc(C)c(=O)[nH]c5=O)OC4CO)nn3)CC[C@]3(C)[C@H](CC[C@@H]4[C@@]5(C)CC[C@H](OC(=O)CC(=O)OC)C(C)(C)[C@@H]5CC[C@]43C)[C@@H]12 (stereo partly specified)
IC50 (KB): 8.1 µM

SMILES: C=C(Cn1cc(-c2ccc(F)cc2)nn1)[C@@H]1CC[C@]2(C(=O)O)CC[C@]3(C)[C@H](CC[C@@H]4[C@@]5(C)CC[C@H](O)C(C)(C)[C@@H]5CC[C@]43C)[C@@H]12
IC50 (HL-60): 1.7 µM

SMILES: CC1(C)CC[C@]2(C(=O)O)CC[C@]3(C)C(=CC[C@@H]4[C@@]5(C)CC[C@H](OC(=O)CCc6cn(Cc7ccc(Cl)cc7)nn6)C(C)(C)[C@@H]5CC[C@]43C)[C@@H]2C1
IC50 (AGS): 8.9 µM

SMILES: C=C(Cn1cc(-c2ccccc2C=O)nn1)[C@@H]1CC[C@]2(C(=O)O)CC[C@]3(C)[C@H](CC[C@@H]4[C@@]5(C)CC[C@H](OC(C)=O)C(C)(C)[C@@H]5CC[C@]43C)[C@@H]12
IC50 (CCRF-CEM): 3.3 µM

Further lines, with some results ahead:

IC50 (HT-1080): 3.51 µM
SMILES: CC1(C)CC[C@]2(C(=O)OCc3cn(-c4ccc([N+](=O)[O-])cc4)nn3)CC[C@]3(C)C(=CC[C@@H]4[C@@]5(C)CC[C@H](O)C(C)(C)[C@@H]5CC[C@]43C)[C@@H]2C1
IC50 [2]: 4.97 µM

IC50 [3]: 2.59 µM
SMILES: CC1(C)CC[C@]2(C(=O)O)CC[C@]3(C)C(=CC[C@@H]4[C@@]5(C)CC[C@H](OCc6cn(CCCCCCn7cc(CO[C@H]8CC[C@]9(C)[C@H]%10CC=C%11[C@@H]%12CC(C)(C)CC[C@]%12(C(=O)O)CC[C@@]%11(C)[C@]%10(C)CC[C@H]9C8(C)C)nn7)nn6)C(C)(C)[C@@H]5CC[C@]43C)[C@@H]2C1

IC50 [3]: 1.4 µM
SMILES: CO[C@H]1O[C@H](Cn2cc(COC(=O)[C@]34CCC(C)(C)C[C@H]3C3=CC[C@@H]5[C@@]6(C)CC[C@H](O)C(C)(C)[C@@H]6CC[C@@]5(C)[C@]3(C)CC4)nn2)[C@@H](O)[C@H](O)[C@H]1O

GI50 (MDA-MB-231): 1.4 µM
SMILES: C[C@H]1[C@H](C)CC[C@]2(C(=O)OCCCn3cc(COC(=O)[C@]45CC[C@@H](C)[C@H](C)[C@H]4C4=CC[C@@H]6[C@@]7(C)CC[C@H](O)C(C)(C)[C@@H]7CC[C@@]6(C)[C@]4(C)CC5)nn3)CC[C@]3(C)C(=CC[C@@H]4[C@@]5(C)CC[C@H](O)C(C)(C)[C@@H]5CC[C@]43C)[C@H]12

IC50 [4]: 5.4 µM
SMILES: CCCCCCCCC(=O)OCc1cn(CC(=O)O[C@H]2CC[C@]3(C)[C@H]4CC=C5[C@@H]6CC(C)(C)CC[C@]6(C(=O)O)CC[C@@]5(C)[C@]4(C)CC[C@H]3C2(C)C)nn1
